Data set [1] deals with KB (cervical carcinoma). The data set can be described thus: in vitro cytotoxicity assay, KB cells. The format is cell-based, human. The following applies: Homo sapiens, KB, 120 h; free cytotoxic compound; 5 days.
Source text: (§1) Following cell lines were used for the study: KB (cervical carcinoma, ATCC), NCI-H2110 (Non Small Cell Lung Carcinoma, ATCC), Namalwa (Burkitt's lymphoma, ATCC), Ishikawa (endometrial adenocarcinoma, ECACC), EOL-1 (Acute Myeloid Leukemia, ECACC), JEG-3 (choriocarcinoma, ATCC), JHOS-4 (ovarian adenocarcinoma, Riken Bioresource Center), OV-90 (ovarian adenocarcinoma, ATCC), SKOV-6 (ovarian adenocarcinoma, Memorial Sloan Kettering Cancer Center), Igrov-1 (ovarian adenocarcinoma, National Cancer Institute), KB-GRC1-MDR (cervical carcinoma/Pgp positive, gift from Dr. Roninson at the Ordway Research Institute) and T47D (breast epithelial cancer, ATCC). The cells were maintained and plated for the cytotox experiments in media recommended by the manufacturers. Cells were plated in the 96-well flat bottom plates at a seeding density of 800 cells per well (Ishikawa, JEG-3 or SK-OV-6), 1,000 cells per well (KB, Namalwa, EOL-1, OV-90 and Igrov-1) or 2,000 cell per well (NCI H2110, JHOS-4 and T47D). Conjugates or free drug compounds were diluted in RPMI-1640 (Life Technologies) supplemented with heat-inactivated 100 FBS (Life Technologies) and 0.1 mg/ml gentamycin (Life Technologies), and added to the plated cells. To determine specificity of cytotoxic activity of the conjugates an excess of unconjugated antibody was added to a separate set of diluted conjugates (+block samples, IC50 table). The plates were incubated at 37° C., 500 CO2 for either 4 days (JHOS-4 and T47D cells) or 5 days (KB, NCI H2110, Ishikawa, EOL-1, JEG-3, OV-90, SK-OV-6, NC-H441 and Igrov-1 cells). Alamar blue assay (Invitrogen) was used to determine viability of JHOS-4 and T47D cells, and WST-8 assay (Donjindo Molecular Technologies, Inc.) was applied for viability of KB, NCI H2110, Namalwa, Ishikawa, EOL-1, JEG-4, OV-90, SK-OV-6, NCI-H4441 and Igrov-1 cells. The assays were performed in accordance with the manufacturer's protocols. Killing curves and IC50 were generated using a sigmoidal dose-response nonlinear regression curve fit (GraphPad Software Inc.).
Data set [2] relates to NCI-H2110 (Non Small Cell Lung Carcinoma). The data set can be described thus: in vitro cytotoxicity assay, NCI-H2110 cells. Particulars: NCI-H2110, 120 h, free cytotoxic compound; 5 days. In kind it is cell-based.
Source text: as §1
For data set [3], the system named is T47D (breast epithelial cancer). The data set can be described thus: in vitro cytotoxicity assay, T47D cells. In kind it is cell-based. Particulars: Homo sapiens, 96 h, read-out: IC50 T47D.
Procedure: The cells were maintained and plated for the cytotox experiments in media recommended by the manufacturers. Cells were plated in the 96-well flat bottom plates at a seeding density of 800 cells per well (Ishikawa, JEG-3 or SK-OV-6), 1,000 cells per well (KB, Namalwa, EOL-1, OV-90 and Igrov-1) or 2,000 cell per well (NCI H2110, JHOS-4 and T47D). Conjugates or free drug compounds were diluted in RPMI-1640 (Life Technologies) supplemented with heat-inactivated 100 FBS (Life Technologies) and 0.1 mg/ml gentamycin (Life Technologies), and added to the plated cells. To determine specificity of cytotoxic activity of the conjugates an excess of unconjugated antibody was added to a separate set of diluted conjugates (+block samples, IC50 table). The plates were incubated at 37° C., 500 CO2 for either 4 days (JHOS-4 and T47D cells) or 5 days (KB, NCI H2110, Ishikawa, EOL-1, JEG-3, OV-90, SK-OV-6, NC-H441 and Igrov-1 cells). Alamar blue assay (Invitrogen) was used to determine viability of JHOS-4 and T47D cells, and WST-8 assay (Donjindo Molecular Technologies, Inc.) was applied for viability of KB, NCI H2110, Namalwa, Ishikawa, EOL-1, JEG-4, OV-90, SK-OV-6, NCI-H4441 and Igrov-1 cells. The assays were performed in accordance with the manufacturer's protocols. Killing curves and IC50 were generated using a sigmoidal dose-response nonlinear regression curve fit (GraphPad Software Inc.).
For data set [4] the following is noted: Phase I clinical evaluation; cited from earlier work.

With `COC(=O)c1cc2cc(NC(=O)c3cc(NCCCCOc4cc5c(cc4OC)C(=O)N4c6ccccc6C[C@H]4C=N5)cn3C)ccc2s1` [Compound 216], the IC50 – broadly, the midpoint of a concentration-inhibition curve – in data set [1] came out at 0.5 nM; in data set [2], 9 nM; in data set [3], 2 nM.

As for `C=C1C[C@H]2C=Nc3cc(OCCCOc4cc5c(cc4OC)C(=O)N4CC(=C)C[C@H]4C=N5)c(OC)cc3C(=O)N2C1` [SJG-136], the maximum tolerated dose in data set [4] was 45 μg/m^2.
